Measured values from patent publication US10653667B2, “Drug for preventing, treating or preventing metastasis of giant cell tumor that occurs in bone or soft parts, chondrosarcoma, or osteosarcoma, local injection for arterial embolization, and artificial bone” (NIPPON CHEMIPHAR CO., LTD, priority 2013, dated 2020).
“Also recorded” adds a separate entry of the source.

How the values were obtained:
[1] = tested on: synovial cells derived from rheumatism patients; conditions: cited from earlier work
[2] = tested on: cultured cells of giant cell tumor of tendon sheath (GCTT); assay: Suppression of cell proliferation of GCTT cultured cells (CCK-8); format: cell-based, human; conditions: drug at various concentrations, CCK-8 24 hours after addition
[3] = tested on: cultured cells of pigmented villonodular synovitis (PVNS); assay: Suppression of cell proliferation of PVNS cultured cells (CCK-8); format: cell-based, human; conditions: for suppression of cell proliferation (absorbance at 450 nm): PVNS cells, drug at various concentrations, CCK-8 24 hours after addition
H-EMC-SS cells = assay: Suppression of cell proliferation of chondrosarcoma cell line H-EMC-SS (CCK-8); format: cell-based, human; conditions: drug at various concentrations
Source text: The H-EMC-SS cells were obtained from the Riken BioResource Center.
(§1) The H-EMC-SS cells were obtained from the Riken BioResource Center. As the SW1353 cells, those obtained from ATCC were used.

[4] = tested on: GCTB cultured cells (case 1, case 2; GCT-1, GCT-2); assay: Suppression of cell proliferation of GCTB cultured cells (Cell Counting Kit-8, WST assay); format: cell-based, human; conditions: drug at various concentrations, CCK-8 24 hours after addition
Method: Tissue Int., 75:71-77), repeatedly subcultured until there were only spindle-shaped cells, which state was gradually attained from the state that there were also multinucleated giant cells observed in an early stage, and then used for the following analysis. […] Zaltoprofen was added as a solution in DMSO (dimethyl sulfoxide) prepared at a concentration 1000 times higher than the final concentration, and the solution was added in a volume of 0.1% of the volume of the medium. The same shall apply to the other drugs used in the following examples. […]

SW1353 cells [5] = assay: Suppression of cell proliferation of chondrosarcoma cell line SW1353 (CCK-8); format: cell-based, human; conditions: drug at various concentrations
Source text: as §1

SW1353 cells [6] = assay: Cell migration of human chondrosarcoma cell line SW1353; format: cell-based; conditions: 72 hours
Method: The analysis of cell migration was performed by using a 6-well plate of TPP according to the method described in Takeuchi A, et al., Cancer Science, 104:740-749, 2013 (Low molecular weight heparin suppresses receptor for advanced glycation end products-mediated expression of malignant phenotype in human fibrosarcoma cells). Cells of the human chondrosarcoma cell line, SW1353, were cultured in the same manner as that of Example 1 until they became sub-confluent, and the cells were delaminated in a width of 1 mm using a micropipette tip (200 μl). […] Then, area of the cells migrated to the region where the cells were delaminated was measured by using Image J software (http://rsb.info.nih.gov/ij/index.html) (FIGS. 73 and 74).

SW1353 cells [7] = assay: Cell invasion of SW1353 cells (Matrigel Invasion Chamber); format: cell-based, human; conditions: all set concentrations, concentration-dependent; 24 hours
Source text: For the analysis of cell invasion, Matrigel™ Invasion Chamber (BD Bioscience, catalog number 354480), which uses Matrigel as the matrix, was used. […] FIGS. 76 and 77 show microphotographs of invaded cells fixed by immersion into a 4% paraformaldehyde solution, and stained with hematoxylin (magnification is 200 times). From the microphotographs of FIGS. 76 and 77, the patterns of the invaded cells can be understood.

Solubility in DMSO = format: physicochemical; conditions: limited highest test concentration (lornoxicam 80 μm, ampiroxicam 20 μm)
colon cancer = conditions: cited from earlier work
[8] = tested on: OST cells, human bone sarcoma-derived cultured cells; conditions: transdermally administered; after four weeks; cited from earlier work
PVNS = conditions: in vitro; cited from earlier work
SW1353 cells [9] = assay: Proliferation of SW1353 cells cultured beforehand with PPARγ siRNA or control siRNA; format: cell-based, human; conditions: 100 μM rosiglitazone; 24 hours
[10] = all set concentrations, concentration-dependent

SMILES | activation of PPARγ [1] | apoptosis [1] | suppression of proliferation of the cells [1] | suppression of cell proliferation (absorbance at 450 nm) [2] | suppression of cell proliferation (absorbance at 450 nm) [3] | suppression of cell proliferation (absorbance at 450 nm) (H-EMC-SS cells) | suppression of cell proliferation (live cell count, absorbance at 450 nm) [4] | suppression of cell proliferation (absorbance at 450 nm) (SW1353 cells [5]) | further results
CS(=O)(=O)Nc1ccc([N+](=O)[O-])cc1OC1CCCCC1 [NS-398] | did not activate PPARγ | did not cause apoptosis | suppressed proliferation |  |  |  |  |  | 
COc1ccc2c(c1)c(CC(=O)OCC(=O)O)c(C)n2C(=O)c1ccc(Cl)cc1 [acemetacine, acemetacin] |  |  |  | suppressed proliferation | suppressed proliferation | suppressed proliferation | suppressed proliferation | suppressed proliferation | 
CC(=O)Nc1ccc(O)cc1 [acetaminophen] | did not cause activation of PPARγ | did not cause | did not cause | suppressed proliferation | suppressed proliferation | suppressed proliferation | suppressed in a drug concentration-dependent manner; also recorded: suppressed proliferation | suppressed proliferation | suppression of cell migration of SW1353 cells (SW1353 cells [6]; [10]): suppressed the cell migration; suppression of cell invasion of SW1353 cells (SW1353 cells [7]): suppressed the cell invasion
CCOC(=O)OC(C)OC1=C(C(=O)Nc2ccccn2)N(C)S(=O)(=O)c2ccccc21 (stereo not shown) [ampiroxicam] |  |  |  | suppressed proliferation | suppressed proliferation | suppressed proliferation | suppressed proliferation | suppressed proliferation | solubility in DMSO (dimethyl sulfoxide) (Solubility in DMSO): low solubility
Cc1ccc(-c2cc(C(F)(F)F)nn2-c2ccc(S(N)(=O)=O)cc2)cc1 [celecoxib] |  |  |  |  |  |  |  |  | suppression of cell migration of SW1353 cells (SW1353 cells [6]; 75 μM celecoxib): higher than 80%
O=C(O)Cc1ccccc1Nc1c(Cl)cccc1Cl [diclofenac] | activated PPARγ | caused apoptosis | suppress proliferation | suppressed proliferation | suppressed proliferation | suppressed proliferation | suppressed in a drug concentration-dependent manner; also recorded: suppressed proliferation | suppressed proliferation | suppression of cell migration of SW1353 cells (SW1353 cells [6]; [10]): suppressed the cell migration; suppression of cell invasion of SW1353 cells (SW1353 cells [7]): suppressed the cell invasion; occurrence of colon cancer (colon cancer; induced by repetitive administration of 1,2-dimethylhydrazine dihydrochloride to rats): prevented occurrence of colon cancer; amount of NF-κB protein in the large intestine (colon cancer; rats): reduced amount of NF-κB protein; amount of the PPARγ protein (colon cancer; rats): increased amount of the PPARγ protein
CCc1cccc2c3c([nH]c12)C(CC)(CC(=O)O)OCC3 (stereo not shown) [etodolac] |  |  |  | suppressed proliferation | suppressed proliferation | suppressed proliferation | suppressed proliferation | suppressed proliferation | 
COc1ccc2c(c1)c(CC(=O)O)c(C)n2C(=O)c1ccc(Cl)cc1 [indomethacin] | activated PPARγ | caused apoptosis | suppress proliferation | suppressed proliferation | suppressed proliferation | suppressed proliferation | suppressed in a drug concentration-dependent manner; also recorded: suppressed proliferation | suppressed proliferation | suppression of cell migration of SW1353 cells (SW1353 cells [6]; [10]): suppressed the cell migration; suppression of cell invasion of SW1353 cells (SW1353 cells [7]): suppressed the cell invasion
CC(C(=O)O)c1cccc(C(=O)c2ccccc2)c1 (stereo not shown) [ketoprofen] | did not cause activation of PPARγ | did not cause | did not cause |  |  |  |  |  | tumor weight relative to placebo group [8]: 48%
CN1C(C(=O)Nc2ccccn2)=C(O)c2sc(Cl)cc2S1(=O)=O [lornoxicam] |  |  |  | suppressed proliferation | suppressed proliferation | suppressed proliferation | suppressed proliferation | suppressed proliferation | solubility in DMSO (dimethyl sulfoxide) (Solubility in DMSO): low solubility
NC(=O)c1ncn([C@@H]2O[C@H](CO)[C@@H](O)[C@H]2O)c1O [mizoribine] |  |  |  |  |  |  |  |  | inhibition of proliferation of PVNS (PVNS): slightly inhibited proliferation
COc1ccc(-c2noc(CC(=O)O)c2-c2ccc(OC)cc2)cc1 [mofezolac] |  |  |  | suppressed proliferation | suppressed proliferation | suppressed proliferation | suppressed proliferation | suppressed proliferation | 
COc1ccc2cc([C@H](C)C(=O)O)ccc2c1 [naproxen] |  |  |  | suppressed proliferation | suppressed proliferation | suppressed proliferation | suppressed proliferation | suppressed proliferation | 
O=C(O)CCc1nc(-c2ccccc2)c(-c2ccccc2)o1 [oxaprozin] | activated PPARγ | caused apoptosis | suppress proliferation | suppressed proliferation | suppressed proliferation | suppressed proliferation | suppressed proliferation | suppressed proliferation | suppression of the proliferation at the highest measured concentration ([3]; oxaprozin 200 μm, cells of pigmented villonodular synovitis as printed, 400 μm or higher could not be measured): only slight suppression
CN(CCOc1ccc(CC2SC(=O)NC2=O)cc1)c1ccccn1 (stereo not shown) [rosiglitazone] |  |  |  |  |  |  |  |  | suppression of proliferation of SW1353 cells (SW1353 cells [9]): about 61%
Cc1c(C)c2c(c(C)c1O)CCC(C)(COc1ccc(CC3SC(=O)NC3=O)cc1)O2 (stereo not shown) [troglitazone] |  |  |  |  |  |  |  |  | suppression of cell migration of SW1353 cells (SW1353 cells [6]; 100 μM troglitazone): about 65%
